PMC9011347, “Small-Molecule Inhibitors Targeting Lipolysis in Human Adipocytes” (Journal of the American Chemical Society, 2022)

Experiments:
Test in all cases: TAG hydrolase assay, humanized mouse ATGL variants
Type in all cases: biochemical
mouse ATGL A60V = biological target: T1, mouse ATGL A60V (Mus musculus, UniProt Q8BJ56, A60V); details: variant A60V, NG-497 (10 μM) or Atglistatin (10 μM)
T1 construct: host or cells: Expi293 cells, cell lysate
Method: (§1) Figure 5 Analysis of chimeric proteins comprising human and mouse ATGL. (a) Schematic view of the minimal active domain of wild-type and chimeric ATGL variants (c1–c9). Nonidentical aa are indicated in blue and red for mouse and human ATGL, respectively. ATGL variants were expressed in Expi293 cells and TAG hydrolase activity was determined in cell lysates in the presence or absence of NG-497 (10 μM) and Atglistatin (10 μM), respectively. Inhibition of ATGL variants by respective inhibitors (tick mark) and lack of inhibition (cross) is indicated at the right edge. The expression of all ATGL variants was confirmed by Western blotting analysis (Figure S6). (b) Dose-dependent inhibition of human ATGL (aa 1–288) and c1 (human aa 1–158 and mouse aa 159–288) by NG-497. (c) Dose-dependent inhibition of mouse ATGL (aa 1–288) and c2 (mouse aa 1–158 and human aa 159–288) by Ai. IC50 values are shown in the insets. Data are presented as relative inhibition of respective DMSO controls and are indicated as mean ± SD. (d) 3D homology model of the minimal active domain of mouse ATGL (M1–L254) depicted as a cartoon. Residues 1–178 are in blue, and residues 179–254 are in gray. S47 and D166 comprising the active site are represented as green sticks. T101, C106, R109, N111, and S133 are colored in orange, A60, N68, I69, T93, C97, and T146 are colored in magenta. TEXT PRINTED IN THE PICTURE: (b) NG-497: IC50 [μM] (human): 1.3±0.1; IC50 [μM] (c1): 1.3±0.1 | (b) Ai: IC50 [μM] (human): n.det.; IC50 [μM] (c1): n.det. | (c) NG-497: IC50 [μM] (mouse): n.det.; IC50 [μM] (c2): n.det. | (c) Ai: IC50 [μM] (mouse): 2.5±0.3; IC50 [μM] (c2): 2.4±0.1 […]
(§2) The region between aa 60 and 146 of human and mouse ATGL comprises 12 nonidentical aa. We generated 3D homology models for the minimal active domain of mouse ATGL to obtain more detailed insight into the topology of the relevant region (Figure 5d). Based on this model, aa T101, C106, R109, N111, and S133 locate at peripheral (loop) regions (indicated in orange, Figure 5d). […] For all other nonidentical aa (indicated in magenta, Figure 5d), we generated variants with single aa substitutions. The humanized variants A60V, N68K, T93I, and C97F were inactivated by Ai but not NG-497 (Figure 5a).
(§3) Experimental details, materials, and methods
(§4) Expression of recombinant ATGL constructs and preparation of cell lysates. Expi293 cells were cultivated in Expi293 Expression Medium (GIBCO, Thermo Fisher Scientific, Waltham, USA) at standard conditions (37°C, 5% CO2, 95% humidified atmosphere, 125 rpm). DNA constructs containing ATGL from different species and chimeric ATGL variants in pcDNA3.1(+)myc-His C Vector were obtained from BioCat GmbH (Heidelberg, Germany). Cells were transfected with ExpiFectamine293 Transfection Kit (GIBCO) in Opti-Mem reduced serum medium (GIBCO) according to the manufacturer’s instructions. After 48 h, cells were harvested by centrifugation and washed three times with PBS. Cells were disrupted in buffer A (0.25 M sucrose, 1 mM EDTA, 1 mM dithiothreitol, 20µg/ml leupeptin, 2 µg/ml antipain, 1 µg/ml pepstatin, pH 7.0) by sonication (Virsonic 475, Virtis, Gardiner, USA). Nuclei and debris were removed by centrifugation at 1,000 g and 4°C for 10 min. Protein concentrations were determined using Bio-Rad protein assay (Bio-Rad 785, Bio-Rad Laboratories, Munich, Germany) using BSA as standard.
(§5) Expression and purification of mouse CGI-58. CGI-58 was expressed and purified as described 1. In brief, the coding sequence of mouse Cgi-58 was cloned into pHis-Sumo and co-transformed with the plasmid pTf16 expressing the chaperone Tig into E. coli BL21(DE3). Cells were cultured overnight at 37°C and 180 rpm in the presence of 40 µg/ml kanamycin and 34 µg/ml chloramphenicol. Thereafter, cells were transferred into fresh LB medium, grown until OD600 of 0.6, and expression was induced by the addition of 0.5 mM IPTG. After overnight incubation at 30°C, cells were harvested at 4,500 x g and 4°C for 20 min, […]

mouse ATGL C97F = biological target: T2, mouse ATGL C97F (Mus musculus, UniProt Q8BJ56, C97F); details: variant C97F, NG-497 (10 μM) or Atglistatin (10 μM)
T2 construct: host or cells: Expi293 cells, cell lysate
T2 sequence (Q8BJ56 whole entry C97F): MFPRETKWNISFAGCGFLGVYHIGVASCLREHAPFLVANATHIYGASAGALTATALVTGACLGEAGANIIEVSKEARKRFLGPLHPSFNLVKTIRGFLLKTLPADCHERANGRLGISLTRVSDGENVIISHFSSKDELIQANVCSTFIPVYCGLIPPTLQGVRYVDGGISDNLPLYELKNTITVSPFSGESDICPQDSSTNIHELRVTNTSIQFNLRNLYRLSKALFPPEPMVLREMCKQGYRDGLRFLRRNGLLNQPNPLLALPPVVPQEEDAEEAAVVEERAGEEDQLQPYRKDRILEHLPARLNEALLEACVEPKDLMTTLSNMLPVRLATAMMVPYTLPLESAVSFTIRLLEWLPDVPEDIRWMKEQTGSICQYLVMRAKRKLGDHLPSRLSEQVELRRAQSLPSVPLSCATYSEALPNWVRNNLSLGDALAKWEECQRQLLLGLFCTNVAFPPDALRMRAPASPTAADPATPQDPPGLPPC
Method: as §1, §2, §3, §4, §5

mouse ATGL N68K = biological target: T3, mouse ATGL N68K (Mus musculus, UniProt Q8BJ56, N68K); details: variant N68K, NG-497 (10 μM) or Atglistatin (10 μM)
T3 construct: host or cells: Expi293 cells, cell lysate
T3 sequence (Q8BJ56 whole entry N68K): as the sequence (Q8BJ56 whole entry C97F) above, with N68K, F97C counted along it
Method: as §1, §2, §3, §4, §5

mouse ATGL T93I = biological target: T4, mouse ATGL T93I (Mus musculus, UniProt Q8BJ56, T93I); details: variant T93I, NG-497 (10 μM) or Atglistatin (10 μM)
T4 construct: host or cells: Expi293 cells, cell lysate
T4 sequence (Q8BJ56 whole entry T93I): as the sequence (Q8BJ56 whole entry C97F) above, with T93I, F97C counted along it
Method: as §1, §2, §3, §4, §5

Measured: inhibition of TAG hydrolase activity

T1 sequence (Q8BJ56 whole entry A60V): as the sequence (Q8BJ56 whole entry C97F) above, with A60V, F97C counted along it

CN(C)C(=O)Nc1cccc(-c2ccc(N(C)C)cc2)c1 [Atglistatin, reference compound]
inactivated: all assays above
